Earlier results, collected in patent publication US10792293B2, “Topical nanodrug formulation” (priority 2015, dated 2020).

solubility in water: about 2.8 mg/100 ml
Compound: CC(=O)S[C@@H]1CC2=CC(=O)CC[C@]2(C)[C@H]2CC[C@@]3(C)[C@@H](CC[C@@]34CCC(=O)O4)[C@H]12 [Spironolactone, spironolactone]
